# According to patent US20250312468A1, “ANTI-PROTAC ANTIBODIES AND COMPLEXES” (Merck Patent GmbH, priority 2021, published 2025):
# Legend:
# [1] = Storage stability of antibody-PROTAC complexes (DLS, SE-HPLC, visible changes); type: physicochemical; details: no storage time/temperature printed
# Experimental: Storage stability of antibody-PROTAC complexes was assessed after complexation (6 mg/ml, 650 rpm, 3 h, rt) by incubation in the fridge at 4° C. over 96 h as well as snap-freezing the complexes and storage at −80° C. for 24 h or at −20° C. at 96 h. Subsequently the samples were checked for visible changes, the polydispersity was assessed using DLS measurements and the loading was measured via SE-HPLC (Table 6). Samples with polydispersity up to 15% are considered monodisperse.
# [2] = mouse, in vivo
# Experimental: After shaking/vortexing for 1 min, samples were filtered, (Captiva filtration on polypropylene filter, 0.45 μm pore size) and 120 μL of methanol:water (1:1, v/v) was added to the filtrate and stored at 4° C. until analysis and put in the autosampler before injection. The analysis was carried out on a LC-MS/MS system consisting of an UPLC coupled to a QTRAP 6500+ (Sciex) mass spectrometer. Mobile phase A was water with 0.1% formic acid and mobile phase B was methanol with 0.1% formic acid. […] The chromatography was performed on a Poroshell 120 EC-C18 column, 2.7 μm particles, 3×50 mm, from Agilent Technologies. […] The calibration curve for quantitation was based on standards ranging from 0.5 (Lower Limit of Quantitation) to 10000 (Upper Limit of Quantitation) ng/ml, with 5 calibration points minimum and minimum 75% of calibration standards to be within […] of their nominal values. The total antibody concentration was determined by ligand binding assay (LBA) based on the Meso Scale Diagnostics technology (MSD, LLC., Rockville, MD). […] After a final washing step, 150 μL of 2×MSD Read Buffer T with surfactant (MSD, #R92TC) was added to each well and plates were read on a MESO Quickplex SQ120 plate reader (MSD). […] The lower limit of quantification (LLOQ) was 50 ng/ml.
# Mouse serum stability = type: in vitro ADME; details: 5 μM, 37° C.
# Experimental: The mixture was incubated 2 hours at room temperature while shaking at 650 rpm. 15% (vol/vol) 2 M HEPES buffer pH 7.55 were added to mouse serum from Biowest (Lot.no. S18169S2160) followed by sterile filtration.
# The incubation was stopped by freezing at −20° C.
# The concentration of PROTAC GNE987 was quantified using LC-MS.
# Quantification was performed using a total antibody ELISA (FIG. 24).
# [3] = Pillow, T. H. et al., ChemMedChem 15 (2020) 17-25; cited from earlier work
# MIC1 = assay: SPR binding of PROTACs to immobilized antibody MIC1; details: binding of PROTACs to MIC1, steady-state model
# Experimental: The binding affinities of hit antibodies MIC1 and MIC2 to a diverse set of VH032-based PROTACs (FIGS. 8A-8B) was determined by surface plasmon resonance (SPR) in a Biacore T200 instrument. The running buffer consist of PBS, 0.05% Tween-20, 2% DMSO and temperature and flow rate were set to 30° C. and 30 μL/min, respectively. The assay setup is depicted exemplarily in FIG. 7A. CM5 sensor chips were coated with antibody (=ligand; 2500 RU) using standard EDC/NHS chemistry. PROTACs (=analytes) were serially diluted (1 μM-1.9 nM) in running buffer, injected to the instrument in consecutive runs and were captured by the antibody resulting in an increase of the corresponding SPR response. After the association step (300 s), running buffer was injected for 600 s and the PROTAC dissociated from the antibody leading to signal decrease. After each run, residual bound PROTAC was removed from the immobilized antibody by injection of 10 mM glycine/HCl, pH 1.5 for 2×30 s regenerating the antibody for the next association and dissociation cycle. To compensate for matrix effects, the measured SPR response signal was subtracted by the analyte response to an inactivated (EDC/NHS, ethanol amine) reference surface omitting the ligand. Furthermore, a DMSO solvent correction was performed and analyte response was subtracted by the running buffer signal. […]
Structure (SMILES),Visible evaluation [1],time after which PROTAC GNE987 concentration fell below LLOQ [2] [h],"half-life of the PROTAC GNE987 ([2]; iv, 0.4 mg/kg) [h]",stability of GNE987 in mouse serum (LC-MS) (Mouse serum stability),half-life reported in literature [3] [h],Kd (MIC1) [nM]
Cc1ncsc1-c1ccc(CNC(=O)[C@@H]2C[C@@H](O)CN2C(=O)[C@@H](NC(=O)CCCCCCCCCCNC(=O)c2cc3c(cc2CS(C)(=O)=O)-c2cn(C)c(=O)c4[nH]cc(c24)CN3c2ncc(F)cc2F)C(C)(C)C)cc1 [GNE987],precipitation,25,5.8,stable over 72 hours,2.8,–
Cc1ncsc1-c1ccc([C@H](C)NC(=O)[C@@H]2C[C@@H](O)CN2C(=O)[C@@H](NC(=O)COCCCOCCNC(=O)C[C@@H]2N=C(c3ccc(Cl)cc3)c3c(sc(C)c3C)-n3c(C)nnc32)C(C)(C)C)cc1 [ARV771],–,–,–,–,–,6.5
